From PubChem BioAssay AID330 (DTP/NCI, 2004)
Where “and” joins values, the source holds several entries; their conditions need not be identical. Identical values can stand only once. Toxic doses and inconclusive results are not listed. Rule for the calls: active = survival T/C of 150% or more; inactive = T/C below 125% in these data.

Tested on: P388 leukemia ip, CD2F1 mice, survival T/C
Assay: NCI In Vivo Anticancer Drug Screen. Data for tumor model P388 Leukemia (intraperitoneal) in CD2F1 (CDF1) mice
Conditions: endpoint: median survival time, higher = longer survival
In short: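 Mice carrying the transplanted tumor received test compound or vehicle. Survival was recorded in each group, and the value is the treated-group measurement divided by that of the vehicle-treated control group.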

[1] = dose: 50.0 mg/kg/injection, schedule: Q01DX005 (ip), vehicle: Klucel (hydroxypropylcellulose) (HPC)
[2] = dose: 100.0 mg/kg/injection, schedule: Q01DX005 (ip), vehicle: Klucel (hydroxypropylcellulose) (HPC)
[3] = dose: 50.0 mg/kg/injection, schedule: Q01DX009 (ip), vehicle: saline with Tween-80
[4] = dose: 100.0 mg/kg/injection, schedule: Q01DX009 (ip), vehicle: saline with Tween-80
[5] = dose: 200.0 mg/kg/injection, schedule: Q01DX009 (ip), vehicle: saline with Tween-80
[6] = dose: 50.0 mg/kg/injection, schedule: Q01DX009 (ip), vehicle: saline
[7] = dose: 200.0 mg/kg/injection, schedule: Q01DX005 (ip), vehicle: Klucel (hydroxypropylcellulose) (HPC)
[8] = dose: 60.0 mg/kg/injection, schedule: Q01DX005 (ip), vehicle: saline with Tween-80
[9] = dose: 120.0 mg/kg/injection, schedule: Q01DX005 (ip), vehicle: saline with Tween-80
[10] = dose: 240.0 mg/kg/injection, schedule: Q01DX005 (ip), vehicle: saline with Tween-80
[11] = dose: 100.0 mg/kg/injection, schedule: Q01DX009 (ip), vehicle: saline
[12] = dose: 200.0 mg/kg/injection, schedule: Q01DX009 (ip), vehicle: saline
[13] = dose: 50.0 mg/kg/injection, schedule: Q01DX009 (ip), vehicle: Klucel (hydroxypropylcellulose) (HPC)
[14] = dose: 100.0 mg/kg/injection, schedule: Q01DX009 (ip), vehicle: Klucel (hydroxypropylcellulose) (HPC)
[15] = dose: 200.0 mg/kg/injection, schedule: Q01DX009 (ip), vehicle: Klucel (hydroxypropylcellulose) (HPC)
[16] = dose: 400.0 mg/kg/injection, schedule: Q01DX009 (ip), vehicle: Klucel (hydroxypropylcellulose) (HPC)

Measured: T/C

O=S1Nc2ccccc2[C@H]2[C@@H]1[C@H]1O[C@@H]2c2ccccc21 (stereo partly drawn)
inactive: [1] 112 % of control | [2] 105 % of control | dose: 240.0 mg/kg/injection, schedule: Q01DX005 (ip), vehicle: Klucel (hydroxypropylcellulose) (HPC) 101 % of control

CCN(CC#N)c1ccc(C=Nc2ccc(OC)cc2OC)cc1
inactive: [3] 91 % of control | [4] 93 % of control | [5] 97 % of control

Cc1cc(CO)cc(CO)c1
inactive: dose: 100.0 mg/kg/injection, schedule: Q01DX001 (ip), vehicle: saline with Tween-80 104 % of control | dose: 200.0 mg/kg/injection, schedule: Q01DX001 (ip), vehicle: saline with Tween-80 101 % of control | dose: 400.0 mg/kg/injection, schedule: Q01DX001 (ip), vehicle: saline with Tween-80 100 % of control

S=C(Oc1ccccc1)SSC(=S)Oc1ccccc1
inactive: dose: 25.0 mg/kg/injection, schedule: Q04DX003 (ip), vehicle: saline with Tween-80 114 % of control | dose: 50.0 mg/kg/injection, schedule: Q04DX003 (ip), vehicle: saline with Tween-80 104 % of control | dose: 100.0 mg/kg/injection, schedule: Q04DX003 (ip), vehicle: DMSO 90 % of control | dose: 100.0 mg/kg/injection, schedule: Q04DX003 (ip), vehicle: saline with Tween-80 96 % of control | dose: 200.0 mg/kg/injection, schedule: Q04DX003 (ip), vehicle: saline with Tween-80 107 % of control

c1coc(CNC2=NCCCCC2)c1
inactive: dose: 12.5 mg/kg/injection, schedule: Q01DX009 (ip), vehicle: saline 108 % of control | dose: 25.0 mg/kg/injection, schedule: Q01DX009 (ip), vehicle: saline 108 % of control | [6] 102 % of control

O=[N+]([O-])c1ccc(C(Nc2nncs2)Nc2nncs2)c([N+](=O)[O-])c1
inactive: [1] 97 % of control | [2] 96 % of control | [7] 100 % of control

COc1cc2c(cc1OC)[C@H]1[C@@H](CO)c3ccc4c(c3CN1CC2)OCO4
inactive: [1] 109 % of control | [2] 92 % of control | [7] 92 % of control

Cc1nc(C2(O)C(C3COC(C)(C)O3)OC3OC(C)(C)OC32)no1 (stereo not drawn)
inactive: [8] 100 % of control | [9] 100 % of control | [10] 100 % of control

O=S(=O)(Nc1cccc(Cl)c1)c1ccc(F)cc1
inactive: [8] 96 % of control | [9] 99 % of control | [10] 101 % of control

[Cl][Cr]([Cl])[Cl].[NH-]CC[N-]CC[NH-]
inactive: [6] 97 % of control | [11] 109 % of control | [12] 115 % of control

Nc1nnc(-c2ccc(Br)cc2)o1
inactive: [8] 106 % of control | [9] 109 % of control | [10] 114 % of control

CC(=O)C1=C(C(C)=O)C2(C)OC1(C)c1ccccc12
inactive: dose: 100.0 mg/kg/injection, schedule: Q01DX001 (ip), vehicle: Klucel (hydroxypropylcellulose) (HPC) 107 % of control | dose: 200.0 mg/kg/injection, schedule: Q01DX001 (ip), vehicle: Klucel (hydroxypropylcellulose) (HPC) 104 % of control | dose: 400.0 mg/kg/injection, schedule: Q01DX001 (ip), vehicle: Klucel (hydroxypropylcellulose) (HPC) 99 % of control

O=[N+]([O-])c1ccc2c(c1)N=Cc1ccccc1NCCNc1ccccc1C=N2
inactive: [6] 95 % of control | [11] 87 % of control and 90 % of control | [12] 92 % of control and 93 % of control

CC1=NN(C(C)(C)C)[Si](C)(C)C1
inactive: dose: 25.0 mg/kg/injection, schedule: Q01DX005 (ip), vehicle: Klucel (hydroxypropylcellulose) (HPC) 96 % of control | [1] 93 % of control | [2] 97 % of control

C1=CC(=C(c2ccccc2)c2ccccc2)C=C1
inactive: [13] 98 % of control | [3] 107 % of control | [14] 100 % of control | [4] 104 % of control | [15] 101 % of control | [5] 102 % of control | dose: 400.0 mg/kg/injection, schedule: Q01DX009 (ip), vehicle: saline with Tween-80 102 % of control

[Cr+6].[NH-]CCC[NH-].[NH-]CCC[NH-].[NH-]CCC[NH-]
inactive: dose: 200.0 mg/kg/injection, schedule: Q01DX001 (ip), vehicle: saline 95 % of control | dose: 400.0 mg/kg/injection, schedule: Q01DX001 (ip), vehicle: saline 90 % of control

O=C1C(CCl)(CCl)CCC1(CCl)CCl
inactive: dose: 50.0 mg/kg/injection, schedule: Q01DX005 (ip), vehicle: saline with Tween-80 100 % of control | dose: 100.0 mg/kg/injection, schedule: Q01DX005 (ip), vehicle: saline with Tween-80 105 % of control | dose: 200.0 mg/kg/injection, schedule: Q01DX005 (ip), vehicle: saline with Tween-80 94 % of control

Nc1ncnc2c1ncn2C1CC(O)C(COC(c2ccccc2)(c2ccccc2)c2ccccc2)O1 (stereo not drawn)
inactive: [1] 95 % of control | [2] 91 % of control | [7] 86 % of control

Cc1ccc(Nc2ccc(Nc3ccc(C)cc3)c3c2C(=O)c2cc(Cl)c(Cl)cc2C3=O)cc1
inactive: [13] 101 % of control and 93 % of control and 95 % of control | [14] 111 % of control and 89 % of control and 96 % of control | [15] 103 % of control and 105 % of control | [16] 98 % of control

OCC1OC2OC3C(CO)OC(OC4C(CO)OC(OC5C(CO)OC(OC6C(CO)OC(OC7C(CO)OC(OC1C(O)C2O)C(O)C7O)C(O)C6O)C(O)C5O)C(O)C4O)C(O)C3O (stereo not drawn)
inactive: [6] 94 % of control | [11] 89 % of control | [12] 96 % of control

C=C1C(=O)OC2C1C(OC(=O)/C(C)=C/C)CC1(COC(O)C1)C2C(=C)C (stereo not drawn)
inactive: dose: 2.5 mg/kg/injection, schedule: Q01DX009 (ip), vehicle: saline + alcohol 107 % of control | dose: 5.0 mg/kg/injection, schedule: Q01DX009 (ip), vehicle: saline + alcohol 118 % of control | dose: 10.0 mg/kg/injection, schedule: Q01DX009 (ip), vehicle: saline + alcohol 109 % of control | dose: 20.0 mg/kg/injection, schedule: Q01DX009 (ip), vehicle: saline + alcohol 100 % of control

COC1(OC)C(=S)N(C(C)C)C(=S)N1C(C)C
inactive: [1] 100 % of control | [2] 96 % of control | [7] 100 % of control

CC[n+]1ccc(Nc2ccc(/C=C/c3ccc4cc(Nc5cc[n+](CC)cc5)ccc4[n+]3CC)cc2)cc1
inactive: dose: 3.3 mg/kg/injection, schedule: Q04DX003 (ip), vehicle: saline sonified 113 % of control

O=C1OC2(CCCCC2)OC(=O)C1=C/C=C/c1ccc([N+](=O)[O-])o1
inactive: dose: 3.13 mg/kg/injection, schedule: Q01DX009 (ip), vehicle: saline with Tween-80 93 % of control | dose: 6.25 mg/kg/injection, schedule: Q01DX009 (ip), vehicle: saline with Tween-80 88 % of control | dose: 12.5 mg/kg/injection, schedule: Q01DX009 (ip), vehicle: saline with Tween-80 102 % of control | dose: 25.0 mg/kg/injection, schedule: Q01DX009 (ip), vehicle: saline with Tween-80 102 % of control | [3] 100 % of control

Nc1ccc2ccccc2c1N=Nc1ccccc1
inactive: [13] 117 % of control | [14] 118 % of control | [15] 120 % of control | [16] 117 % of control
